Assay results as given in PMC12040169 (PLOS Biology, 2025).

Assay: in vitro
Conditions: human, hela cells, % viability

Row | Compound | viability at 28.5 h, 10 µM [%]
1 | C[C@]12CN(Cc3cccs3)C[C@H]1NC(=O)c1ccccc1C2=O [CBK284702] | 89.2
2 | C[C@]12CN(Cc3ccccc3)C[C@H]1NC(=O)c1ccccc1C2=O [CBK284703] | 96.5
3 | C[C@]12CN(Cc3cccs3)C[C@H]1C(=O)Nc1ccccc1C(=O)N2 [CBK284705] | 98.2
4 | O=C(Cn1c(=O)n(Cc2ccco2)c2ncccc21)N1CCCC1 [CBK284708] | 88.9
5 | COC(=O)C1(Cc2ccccc2-c2ccncc2)CCOCC1 [CBK284709] | 95.2
6 | CC(C)(C)OC(=O)N1CCCC(c2nc3ccccc3cc2N)C1 (centres unmarked) [CBK284711] | 96.7
7 | O=C(Cn1nc(-c2cc3c(s2)CCC3)oc1=O)N1CCCC1 [CBK284712] | 90.3
8 | CN(C)C(=O)Cn1nc(-c2cc3c(s2)CCC3)oc1=O [CBK284715] | 99
9 | COc1ccc2cnc(C3CCCN(C(=O)C4CC4)C3)cc2c1C (centres unmarked) [CBK284716] | 90.8
10 | O=C(NC1CCN(C(=O)CCn2ccc3ccncc32)CC1)C1CC1 [CBK284718] | 78.3
11 | CCOC(=O)C1CCN(C(=O)CCn2ccc3ccncc32)CC1 [CBK284720] | 84.2
12 | CCCC(=O)N1CCCC([C@@H]2C[C@H](C(F)F)n3nc(C)cc3N2)C1 (some centres unmarked) [CBK284721] | 93.2
13 | Cc1cc2n(n1)[C@@H](C(F)F)C[C@@H](C1CCCN(C(=O)C(C)C)C1)N2 (some centres unmarked) [CBK284722] | 96.1
14 | Cc1cc2n(n1)[C@@H](C(F)F)C[C@@H](C1CCCN(C(=O)C3CC3)C1)N2 (some centres unmarked) [CBK284723] | 98.7
15 | O=C(Cn1ccc2ccnc(-c3cccs3)c21)N1CCOCC1 [CBK284729] | 94.2
16 | CC(C)C(=O)NC1CCN(C(=O)CCn2ccc3ccncc32)CC1 [CBK284730] | 98
17 | CC(C)NC(=O)Cn1ccc2ccnc(-c3cccs3)c21 [CBK284732] | 91.3
18 | O=C(Cn1ccc2ccnc(-c3cccs3)c21)N1CCNCC1 [CBK284733] | 90.9
19 | O=C(Cn1ccc2ccnc(-c3cccs3)c21)NCc1ccccn1 [CBK284735] | 95.9
20 | Cn1cc(C2CCCCCN2S(=O)(=O)c2ccc(F)cc2)cn1 (centres unmarked) [CBK284739] | 91.7
21 | Cn1cc(NC(=O)CCn2c(C(F)F)cc3cccnc32)cn1 [CBK284740] | 90.2
22 | Cc1cnc2[nH]c(C3CC3)c(CN3CC(C)OC(C)C3)c2c1 (centres unmarked) [CBK284741] | 91.8
23 | Cc1cnc2[nH]c(C(C)C)c(CN3CCCOCC3)c2c1 [CBK284742] | 90.7

Row | Compound | viability at 28.5 h, 10 µM [%]
24 | CCCC(=O)N1CCC(c2nc3ccccn3c2NC(C)(C)C)CC1 [CBK284744] | 81.9
25 | CCS(=O)(=O)N1CCC2(C=Cc3cc(F)ccc3O2)CC1 [CBK284747] | 104
26 | CC(C)(C)c1cc(C(=O)N2CCn3cc(C(F)(F)F)nc3C2)[nH]n1 [CBK284748] | 87.7
27 | OC1(Cn2ccc3ncccc32)CCN(Cc2ccccc2F)CC1 [CBK284752] | 93.3
28 | Cc1cnc2[nH]c(C3CCN(C(=O)c4scnc4C)CC3)cc2c1 [CBK284753] | 96.7
29 | Cc1cnc2c(c1)cc(C1CCOCC1)n2CC(=O)N(C)C [CBK284754] | 102
30 | Cc1cnc2c(c1)cc(C1CCOCC1)n2CC(=O)NC1CCCC1 [CBK284755] | 103
31 | Cc1occc1-c1nn(C2CCNCC2)c(=O)o1 [CBK284757] | 98.5
32 | Cc1cnc2[nH]c(C(C)C)c(CN(C)C)c2c1 [CBK284758] | 100
33 | O=C(CCn1ccc2ccncc21)NCCc1c[nH]c2ccccc12 [CBK284760] | 99
34 | CC(C)NC(=O)[C@@H]1CN(C)C[C@]12CCc1ccccc1C2=O [CBK284764] | 93.8
35 | Cc1cnc2[nH]c(C(F)(F)F)c(CN3CCOCC3)c2c1 [CBK284766] | 85.7
36 | Cc1cnc2[nH]c(C(F)(F)F)c(CN3CCSCC3)c2c1 [CBK284767] | 90
37 | CC(=O)N1CCN(Cc2c(C(F)(F)F)[nH]c3ncc(C)cc23)CC1 [CBK284768] | 93.1
38 | O=c1[nH]cc(-c2ccccc2)cc1CNc1ccccc1-n1ccnc1 [CBK284769] | 101
39 | O=c1[nH]cc(-c2ccccc2)cc1CNCC1Cc2ccccc2O1 (centres unmarked) [CBK284772] | 92.3
40 | COCCC(=O)NC(Cc1ccsc1)c1nc(C)c(C)s1 (centres unmarked) [CBK284774] | 84.7
41 | Cc1nc(C(Cc2ccsc2)NC(=O)C(C)(C)N)sc1C (centres unmarked) [CBK284775] | 93
42 | Cc1nc(C(Cc2ccsc2)NC(=O)c2cc[nH]n2)sc1C (centres unmarked) [CBK284776] | 85.9
43 | Cc1nc(C(Cc2ccsc2)NC(=O)Cn2ccnc2)sc1C (centres unmarked) [CBK284777] | 102
44 | Cc1nc(C(Cc2ccsc2)NC(=O)c2ccnn2C)sc1C (centres unmarked) [CBK284778] | 87.6
45 | Cc1nc(C(Cc2ccsc2)NC(=O)c2cnn(C)c2)sc1C (centres unmarked) [CBK284779] | 104
46 | OC1(Cn2ccc3ncccc32)CCN(Cc2cccs2)CC1 [CBK284783] | 88.3

Row | Compound | viability at 28.5 h, 10 µM [%]
47 | CC(C)NC(=O)C1(Cc2ccccc2-c2ccncc2)CCOCC1 [CBK284786] | 94.1
48 | CC(C)(C)Nc1c(C2CCN(C(=O)C3CC3)CC2)nc2ccccn12 [CBK284787] | 104
49 | C[C@]12CN(C3CCSC3)C[C@H]1C(=O)Nc1ccccc1C(=O)N2 (some centres unmarked) [CBK284788] | 90.8
50 | OC1(Cn2cnc3ccccc32)CCN(CCc2ccccc2)CC1 [CBK284789] | 100
51 | O=C(C1CC1)N1C[C@@H](c2ccccc2)[C@H](c2cc(C(F)F)[nH]n2)C1 [CBK284791] | 91.1
52 | CN1C[C@@H](C(=O)N(C)C)[C@@]2(CCc3ccccc3C(=O)N2)C1 [CBK284792] | 102
53 | CN1C[C@@H](C(=O)NC(C)(C)C)[C@@]2(CCc3ccccc3C(=O)N2)C1 [CBK284796] | 99
54 | O=C1NC=CCC12CCCN(S(=O)(=O)c1ccc(F)cc1)C2 (centres unmarked) [CBK284797] | 93.5
55 | O=C1NC2(CCCN(C(=O)c3cccs3)C2)Oc2ccccc21 (centres unmarked) [CBK284799] | 93
56 | CN(C)CC(=O)NC(Cc1ccsc1)c1nccs1 (centres unmarked) [CBK284801] | 91.4
57 | O=C(NC(Cc1cccs1)c1nccs1)C1CSCN1 (centres unmarked) [CBK284805] | 91.4
58 | CC(NC(=O)c1ccc(-n2ccnc2)c(-n2cccc2)c1)c1ccco1 (centres unmarked) [CBK284808] | 98
59 | O=C(Cn1cccc2cc(-c3ccc(F)cc3)nc1-2)N1CCOCC1 [CBK284809] | 87.5
60 | O=C(c1ccc(-n2ccnc2)c(-n2cccc2)c1)N1CCCCCC1 [CBK284813] | 87.4
61 | O=c1c2ccccc2nc2n1CCN(Cc1cccs1)CC2 [CBK284815] | 92.3
62 | O=c1c2ccccc2nc2n1CCN(Cc1ccc(F)c(F)c1)CC2 [CBK284816] | 96.6
63 | O=c1c2ccccc2nc2n1CCN(Cc1c(F)cccc1F)CC2 [CBK284817] | 88.7
64 | O=c1c2ccccc2nc2n1CCN(Cc1cc(F)ccc1F)CC2 [CBK284818] | 99.1
65 | CC(=O)NC1(c2ccccc2)CCN(CC(O)c2ccccc2)CC1 (centres unmarked) [CBK284819] | 107
66 | CN(C)CCNC(=O)Cn1c(-c2ccc(F)cc2)cc2cccnc21 [CBK284820] | 97.7
67 | Cc1ccc(CN2CCC3(CCCNC3=O)CC2)cc1 [CBK284822] | 90.6
68 | COc1cccc(CN2CCC3(CCCNC3=O)CC2)c1 [CBK284824] | 96.6
69 | O=C1NCCCC12CCN(Cc1ccc3ncccc3c1)CC2 [CBK284825] | 91.4

Row | Compound | viability at 28.5 h, 10 µM [%]
70 | COc1ccc(F)c(CN2CCC3(CCCNC3=O)CC2)c1 [CBK284827] | 102
71 | O=C1CCN(Cc2ccccc2)CCN1C(=O)C1CCCC1 [CBK284829] | 85.7
72 | Cc1ccc2c(c1)c(=O)cc(C(F)(F)F)n2CCNC(=O)C1CC1 [CBK284831] | 93.1
73 | CC1CCCCN1C(=O)c1ccc(-n2ccnc2)c(-n2cccc2)c1 (centres unmarked) [CBK284832] | 95.5
74 | Cc1ccc2c(c1)CN(C(=O)C1CC1C)CC1(CCN(C)CC1)O2 (centres unmarked) [CBK284833] | 94.5
75 | Cc1ccc2c(c1)C(=O)NCC1(CCN(C(=O)C3CC3)CC1)O2 [CBK284835] | 108
76 | C=Cn1ncc(CN2CCCC(O)(c3ccc(F)cc3)CC2)c1C (centres unmarked) [CBK284837] | 89.3
77 | CCn1cncc1CN1CCCC(O)(c2ccc(F)cc2)CC1 (centres unmarked) [CBK284838] | 90.6
78 | O=C(C1CCOCC1)N1CCCC[C@H]2CN(Cc3ccccc3)C[C@H]21 [CBK284839] | 86.9
79 | Cc1cc(C2CCCCCN2C(=O)c2ccccc2F)on1 (centres unmarked) [CBK284842] | 94.5
80 | Cc1cc(C2CCCCCN2C(=O)c2nn(C)cc2Cl)on1 (centres unmarked) [CBK284843] | 105
81 | Cc1cc(C2CCCCCN2Cc2c(C)nn(C)c2C)no1 (centres unmarked) [CBK284846] | 87.6
82 | COc1ccccc1CCC(=O)N1CCCc2c(cnn2C)C1 [CBK284847] | 80
83 | CCOC(=O)[C@H]1CC[C@]2(CC1)CN(C)C(=O)c1ccccc1O2 [CBK284848] | 101
84 | CCOC(=O)[C@H]1CC[C@]2(CC1)CNC(=O)c1cc(Cl)ccc1O2 [CBK284849] | 89.9
85 | Cc1nn(C)c(C)c1CCC(=O)N1CCc2ncc(Cl)cc2C1 [CBK284851] | 114
86 | Cc1ncccc1C(=O)N1CCC(c2cc3ccccc3cn2)CC1 [CBK284854] | 113
87 | CCc1n[nH]c(C(=O)N2CCc3ncc(Cl)cc3C2)c1C [CBK284856] | 92.8
88 | O=C1NCC2(CCCN(Cc3ccc(F)cc3)C2)Oc2ccccc21 (centres unmarked) [CBK284857] | 92.7
89 | CCOC(=O)C1C2CCC3(CC(=O)c4cc(Cl)ccc4O3)C21 (centres unmarked) [CBK284858] | 107
90 | O=c1c2cc(F)ccc2nc2n1CCN(Cc1cccs1)CC2 [CBK284859] | 110
91 | O=c1c2cc(F)ccc2nc2n1CCN(Cc1ccsc1)CC2 [CBK284860] | 106
92 | O=C(Cn1c(-c2ccc(F)cc2)cc2cccnc21)NC1CC1 [CBK284861] | 103
